These results are taken from US11517508B2, “Composition for single-paste type hydraulic endodontic filling material comprising dimethyl sulfoxide” (MARUCHI, priority 2016, dated 2022).

The subject of this data set is MC3T3-E1 cells. Kind of data set: Cytotoxicity test (MTT) of solvents, material extracts on MC3T3-E1 cells. The format is cell-based. The note with it: p<0.05, FIG. 1. Here is the method:
FIG. 1 is a graph of a cytotoxicity test according to one embodiment of the invention. The test will be described with reference to FIG. 1.
A: NMP, B: DMSO, C: DEGEE, and D: DMSO 80%+DEGEE 20%
Cytotoxicity was measured with respect to the above four kinds of solvents by the following method:
(i) A specimen was placed in a mold with a thickness of 2 mm and a diameter of 10 mm, and hardened in an incubator at 37° C. for 3 days. (ii) A material extract was derived by filling the hardened specimen with a medium at a surface area/medium ratio of 0.5 cm^2 per ml and incubating it at 37° C. for 3 days. (iii) 1.5×10^4 MC3T3-E1 cells were seeded per well on a 24-well culture plate and incubated for 24 hours, and then the medium was sucked off. 1 ml of the material extract was placed in each well and set in triplicate. (iv) The material extracts were incubated for 24 hours, 48 hours and 72 hours, respectively, and then the medium was discarded. The material extracts were treated with 200 μl of 0.05% MTT solution, wrapped in aluminum foil, and reacted in the incubator at 37° C. for 2 hours. (v) 200 μl of DMSO was added after the reaction. Then, 200 μl of the reaction solution was transferred to each well in a 96-well plate and absorbance was measured at 590 nm.

Setting [1] is: all tests and all times (24, 48, 72 hours), compared with NMP groups.

For `CCOCCOCCO` [DEGEE, diethylene glycol monoethyl ether, reference compound], under setting [1], the cell survival rate entry is reported as “higher cell survival rate than groups for which NMP was used as a solvent”. In the case of `C[S+](C)[O-]` [DMSO, dimethyl sulfoxide], the cell survival rate result by setting is: (48 hours and 72 hours, comparison between solvent groups) “significantly higher cell survival rate than groups for which DEGEE and a mixture of DMSO and DEGEE were used as solvents”; under setting [1], “higher cell survival rate than groups for which NMP was used as a solvent”.
